Patent publication US20240018121A1, “NOVEL HETEROAROMATIC COMPOUNDS EXHIBITING ANTIFUNGAL ACTIVITY AND THEIR METHOD OF USE” (FOX CHASE CHEMCIAL DIVERSITY CENTER, INC., priority 2020, published 2024)
Converted amounts (≈) assume the structure as drawn.

Key:
Assay type in all cases: cell-based
[1] = tested on: Aspergillus flavus AFL1 (ATCC MYA-3631); test: Fungal MIC Protocol, Aspergillus flavus; settings: Aspergillus flavus; 100% growth inhibition at 48 hours; read-out: MIC Aspergillus flavus 3631
In short: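 Aspergillus flavus spores were grown on Potato Dextrose Agar at 35° C. for 3-5 days, harvested in PBS pH 7.4+0.1% Tween-20 with glass beads, and diluted in RPMI/MOPS to an OD530 of 0.002 (about 2×10^4 cfu/mL). 50 ul of spores were combined with 50 μl of serially diluted compound in 96-well round bottom plates and incubated at 35° C. for 48 hours.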

[2] = tested on: Aspergillus fumigatus T33439 (ATCC MYA-3626); test: Fungal MIC Protocol, Aspergillus fumigatus; settings: Aspergillus fumigatus; 100% growth inhibition at 48 hours; read-out: MIC Aspergillus fumigatus 3626
In short: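 Aspergillus fumigatus was grown on Potato Dextrose Agar at 35° C. for 3-5 days, and spores were collected with PBS pH 7.4+0.1% Tween-20 plus glass beads. Spores were diluted in RPMI/MOPS to OD530 0.002 (about 2×10^4 cfu/mL). 50 ul was added to 50 μl of serially diluted compound in round bottom 96-well plates, run in duplicate, and incubated at 35° C. for 48 hours.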

[3] = tested on: Fusarium falciforme FS1 (ATCC MYA-3636); test: Fungal MIC Protocol, Fusarium falciforme; settings: Fusarium falciforme; 100% growth inhibition at 48 hours; read-out: MIC Fusarium falciforme 3636
In short: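 Fusarium falciforme spores were raised on Potato Dextrose Agar at 35° C. for 3-5 days, collected in PBS pH 7.4+0.1% Tween-20 with glass beads, and diluted in RPMI/MOPS pH 7.0 to OD530 0.005 (about 2×10^4 cfu/mL). 50 ul spores were added to 50 μl duplicate serial compound dilutions in round bottom 96-well plates and incubated at 35° C. for 48 hours.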

[4] = tested on: Fusarium solani (ATCC 58877); test: Fungal MIC Protocol, Fusarium solani; settings: Fusarium solani, ATCC58877; 100% growth inhibition at 48 hours; read-out: MIC Fusarium solani 58877
In short: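 Fusarium solani spores were grown on Potato Dextrose Agar in tissue culture flasks at 35° C. for 3-5 days, harvested with PBS pH 7.4+0.1% Tween-20 and glass beads, and diluted in RPMI/MOPS to an OD530 of 0.005 (about 2×10^4 cfu/mL). Equal 50 ul volumes of spores and serially diluted compound were combined in 96-well round bottom plates and incubated 48 hours at 35° C.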

[5] = tested on: Mucor circinelloides 1463(62) (ATCC 26759); test: Fungal MIC Protocol, Mucor circinelloides (MIC-50); settings: Mucor circinelloides, ATCC26759; 50% growth inhibition at 48 hours; read-out: MIC-50 Mucorales circinelloides 26579
In short: (§1)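 Spores from PDA cultures (Aspergillus, Fusarium at 35 °C; Mucor at room temperature) diluted in RPMI/MOPS pH 7.0 to ~2×10^4 cfu/mL. Ten serial dilutions starting from 200 ug/mL in medium (before 1:1 mixing with spores), in duplicate; 48 h at 35 °C. MIC is the lowest concentration giving >50% visually scored growth inhibition.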

[6] = tested on: Mucor ramosissimus 057718 (ATCC 90286); test: Fungal MIC Protocol, Mucor ramosissimus (MIC-50); settings: Mucor ramosissimus, ATCC90286; 50% growth inhibition at 48 hours; read-out: MIC-50 Mucorales ramosissimus 90286
In short: as §1

[7] = tested on: Candida albicans GDH2346; test: Candida Minimal Inhibitory Concentration (MIC); settings: Candida albicans, GDH2346; 50% growth inhibition at 48 hours; read-out: MIC-50 Candida albicans GDH2346
Protocol: Candida Minimal Inhibitory Concentration (MIC): RPMI/MOPS media is prepared by dissolving 8.4 g RPMI 1640, 34.52 g MOPS buffer and 2 g glucose in 900 mL water. The pH is adjusted to 7.0 with NaOH. The total volume is brought to 1 L and the resulting solution is filter sterilized. The Candida stock is streaked on a Yeast extract Peptone Dextrose (YPD) agar plate and grown at 35° C. for isolation of single colonies. Compounds of the disclosure are diluted to 200 μg/mL in RPMI/MOPS (4.8 ul of 10 mg/mL DMSO stock in 240 ul media). Ten (10) 1:2 serial dilutions are prepared in RPMI/MOPS in a 96-well round bottom plate. Fifty (50) μl of compound dilutions are transferred in duplicate to a sterile tissue culture-treated 96-well flat-bottom, black-sided polypropylene plate. A single colony of Candida from the YPD plate is re-suspended in 5 mL phosphate buffered saline (BS) and optical density (OD) at 600 nm is measured. The suspension is adjusted to OD=1.0 and a 1:1000 dilution is prepared in RPMI/MOPS. Fifty (50) ul aliquots of the diluted yeast are added to the plates containing 50 μL of compound to all wells except 12E-H. Control wells include: 12 A-D cells, no compound and 12 E-H no cells, no compound. The plates are mixed gently by hand and placed in Ziplok bags in a 35° C. incubator. The OD600 is measured at 24 and 48 hours.

| SMILES | MIC [1] [µg/mL] | MIC [2] [µg/mL] | MIC [3] [µg/mL] | MIC [4] [µg/mL] | MIC50 [5] [µg/mL] | MIC50 [6] [µg/mL] | MIC50 [7] [µg/mL] |
| --- | --- | --- | --- | --- | --- | --- | --- |
| N=C(N)NCCn1c(-c2ccc(C3=CCN(C(=N)N)CC3)cc2F)nnc1-c1ccc(C2=CCN(C(=N)N)CC2)cc1F [Example 16, 4,4′-(4,4′-(4-(2-guanidinoethyl)-4H-1,2,4-triazole-3,5-diyl)bis(3-fluoro-4,1-phenylene))bis(5,6-dihydropyridine-1(2H)-carboximidamide)] | 0.39 (≈ 0.663 µM) | 0.39 (≈ 0.663 µM) | < 0.1 | < 0.1 | 12.5 (≈ 21.2 µM) | > 100 | 0.39 (≈ 0.663 µM) |
| N=C(N)N1CC=C(c2ccc(-c3nnc(-c4ccc(C5=CCN(C(=N)N)CC5)cc4F)n3C3CC3)c(F)c2)CC1 [Example 17, 4,4′-(4,4′-(4-Cyclopropyl-4H-1,2,4-triazole-3,5-diyl)bis(3-fluoro-4,1-phenylene))bis(5,6-dihydropyridine-1(2H)-carboximidamide)] | 0.39 (≈ 0.717 µM) | < 0.1 | < 0.1 | 0.39 (≈ 0.717 µM) | 0.39 (≈ 0.717 µM) | 0.78 (≈ 1.43 µM) | 3.13 (≈ 5.76 µM) |
| Cn1c(-c2ccc(C3=CCN(C(=N)N)CC3)c(F)c2)nnc1-c1ccc(C2=CCN(C(=N)N)CC2)c(F)c1 [Example 19, 4,4′-(4,4-(4-Methyl-4H-1,2,4-triazole-3,5-diyl)bis(2-fluoro-4,1-phenylene)) bis(5,6-dihydropyridine-1(2H)-carboximidamide)] | 0.03 (≈ 0.058 µM) | 0.01 (≈ 0.0193 µM) | 0.01 (≈ 0.0193 µM) | 0.03 (≈ 0.058 µM) | 0.1 (≈ 0.193 µM) | 0.2 (≈ 0.386 µM) | 0.1 (≈ 0.193 µM) |
| Cn1c(-c2cc(F)c(C3=CCN(C(=N)N)CC3)cc2F)nnc1-c1cc(F)c(C2=CCN(C(=N)N)CC2)cc1F [Example 20, 4,4′-(4,4′-(4-Methyl-4H-1,2,4-triazole-3,5-diyl)bis(2,5-difluoro-4,1-phenylene))bis(5,6-dihydropyridine-1(2H)-carboximidamide)] | 0.2 (≈ 0.361 µM) | < 0.1 | < 0.1 | 0.2 (≈ 0.361 µM) | 0.78 (≈ 1.41 µM) | 12.5 (≈ 22.6 µM) | 0.78 (≈ 1.41 µM) |
| Cc1cc(C2=CCN(C(=N)N)CC2)ccc1-c1nnc(-c2ccc(C3=CCN(C(=N)N)CC3)cc2C)n1C [Example 22, 4,4′-(4,4′-(4-Methyl-4H-1,2,4-triazole-3,5-diyl)bis(3-methyl-4,1-phenylene))bis(5,6-dihydropyridine-1(2H)-carboximidamide)] | 0.39 (≈ 0.765 µM) | 0.78 (≈ 1.53 µM) | 0.78 (≈ 1.53 µM) | 0.2 (≈ 0.392 µM) | 1.56 (≈ 3.06 µM) | 6.25 (≈ 12.3 µM) | 0.16 (≈ 0.314 µM) |
| CNc1cc(C2=CCN(C(=N)N)CC2)cc(F)c1-c1nnc(-c2ccc(C3=CCN(C(=N)N)CC3)cc2)n1C [Example 23, 4-(4-(5-(4-(1-Carbamimidoyl-1,2,3,6-tetrahydropyridin-4-yl)-2-fluoro-6-(methylamino)phenyl)-4-methyl-4H-1,2,4-triazol-3-yl)phenyl)-5,6-dihydropyridine-1(2H)-carboximidamide] | 0.78 (≈ 1.48 µM) | 0.39 (≈ 0.738 µM) | 0.39 (≈ 0.738 µM) | 0.2 (≈ 0.378 µM) | 0.39 (≈ 0.738 µM) | 1.56 (≈ 2.95 µM) | 0.39 (≈ 0.738 µM) |
| Cc1cc(-c2nnc(-c3ccc(C4=CCN(C(=N)N)CC4)c(C)c3)n2C)ccc1C1=CCN(C(=N)N)CC1 [Example 24, 4,4′-(4,4′-(4-Methyl-4H-1,2,4-triazole-3,5-diyl)bis(2-methyl-4,1-phenylene)) bis(5,6-dihydropyridine-1(2H)-carboximidamide)] | 1.56 (≈ 3.06 µM) | 0.78 (≈ 1.53 µM) | 0.78 (≈ 1.53 µM) | 0.78 (≈ 1.53 µM) | 6.25 (≈ 12.3 µM) | 50 (≈ 98.1 µM) | 1.56 (≈ 3.06 µM) |
| N=C(N)N1CC=C(c2ccc(-c3cn(-c4ccc(C5=CCN(C(=N)N)CC5)cc4)nn3)cc2)CC1 [Example 30, 4(4-{1-[4-(1-Carbamimidoyl-1,2,3,6-tetrahydropyridin-4-yl)phenyl]-1H-1,2,3-triazol-4-yl}phenyl)-1,2,3,6-tetrahydropyridine-1-carboximidamide] | 0.06 (≈ 0.128 µM) | 0.01 (≈ 0.0214 µM) | 0.01 (≈ 0.0214 µM) | < 0.05 | 0.1 (≈ 0.214 µM) | 0.78 (≈ 1.67 µM) | 0.63 (≈ 1.35 µM) |
| Cc1c(-c2ccc(C3=CCN(C(=N)N)CC3)cc2)nnn1-c1ccc(C2=CCN(C(=N)N)CC2)cc1 [Example 31, 4-(4-{1-[4-(1-Carbamimidoyl-1,2,3,6-tetrahydropyridin-4-yl)phenyl]-5-methyl-1H-1,2,3-triazol-4-yl}phenyl)-1,2,3,6-tetrahydropyridine-1-carboximidamide] | < 0.05 | < 0.05 | < 0.05 | < 0.05 | 0.78 (≈ 1.62 µM) | 1.56 (≈ 3.24 µM) | 0.1 (≈ 0.208 µM) |

Second part, the compound after the results:

| MIC [1] [µg/mL] | MIC [2] [µg/mL] | MIC [3] [µg/mL] | MIC [4] [µg/mL] | MIC50 [5] [µg/mL] | MIC50 [6] [µg/mL] | MIC50 [7] [µg/mL] | SMILES |
| --- | --- | --- | --- | --- | --- | --- | --- |
| 0.39 (≈ 0.787 µM) | 0.2 (≈ 0.404 µM) | 0.2 (≈ 0.404 µM) | 0.2 (≈ 0.404 µM) | 3.13 (≈ 6.32 µM) | 6.25 (≈ 12.6 µM) | 0.3 (≈ 0.605 µM) | Cc1cc(C2=CCN(C(=N)N)CC2)ccc1-c1nnc(-c2ccc(C3=CCN(C(=N)N)CC3)cc2)n1C [Example 21, 4-(4-(5-(4-(1-Carbamimidoyl-1,2,3,6-tetrahydropyridin-4-yl)-2-methylphenyl)-4-methyl-4H-1,2,4-triazol-3-yl)phenyl)-5,6-dihydropyridine-1(2H)-carboximidamide] |
| 0.39 (≈ 0.71 µM) | 0.2 (≈ 0.364 µM) | 0.2 (≈ 0.364 µM) | 0.2 (≈ 0.364 µM) | 0.78 (≈ 1.42 µM) | 3.13 (≈ 5.69 µM) | 0.78 (≈ 1.42 µM) | Cn1c(-c2ccc(C3=CCN(C(=N)N)CC3)cc2)nnc1-c1ccc(C2=CCN(C(=N)N)CC2)c(C(F)(F)F)c1 [Example 25, 4-(4-(5-(4-(1-Carbamimidoyl-1,2,3,6-tetrahydropyridin-4-yl)-3-(trifluoromethyl)phenyl)-4-methyl-4H-1,2,4-triazol-3-yl)phenyl)-5,6-dihydropyridine-1(2H)-carboximidamide] |
| 0.39 (≈ 0.748 µM) | < 0.1 | < 0.1 | 0.2 (≈ 0.383 µM) | 0.78 (≈ 1.5 µM) | 6.25 (≈ 12 µM) | 0.39 (≈ 0.748 µM) | Cn1c(-c2ccc(C3=CCN(C(=N)N)C3)cc2)nnc1-c1ccc(C2=CCN(C(=N)N)C2)c(C(F)(F)F)c1 [Example 27, 3-(4-(5-(4-(1-Carbamimidoyl-2,5-dihydro-1H-pyrrol-3-yl)-3-(trifluoromethyl)phenyl)-4-methyl4H-1,2,4-triazol-3-yl)phenyl)-2,5-dihydro-1H-pyrrole-1-carboximidamide] |
| 0.39 (≈ 0.86 µM) | < 0.1 | < 0.1 | 0.39 (≈ 0.86 µM) | 6.25 (≈ 13.8 µM) | 6.25 (≈ 13.8 µM) | 1.56 (≈ 3.44 µM) | Cn1c(-c2ccc(C3=CCN(C(=N)N)C3)cc2)nnc1-c1ccc(C2=CCN(C(=N)N)C2)cc1 [Example 29] |
